For eight compounds, EC50 results are on record in patent US20130040944A1, “MGLUR4 ALLOSTERIC POTENTIATORS, COMPOSITIONS, AND METHODS OF TREATING NEUROLOGICAL DYSFUNCTION” (VANDERBILT UNIVERSITY, priority 2009, published 2013).

The target of the assay is human mGluR4 (Homo sapiens, UniProt Q14833). Put plainly: potentiation of human mGluR4 in transfected CHO cells, Ca2+-sensitive dye fluorescence, EC20 agonist. The conditions noted are these: hEC50, human mGluR4 potentiation; unit inferred.

Broadly, the EC50 is the concentration at which the effect is half-maximal.

Chain of human mGluR4 (Q14833 33-912): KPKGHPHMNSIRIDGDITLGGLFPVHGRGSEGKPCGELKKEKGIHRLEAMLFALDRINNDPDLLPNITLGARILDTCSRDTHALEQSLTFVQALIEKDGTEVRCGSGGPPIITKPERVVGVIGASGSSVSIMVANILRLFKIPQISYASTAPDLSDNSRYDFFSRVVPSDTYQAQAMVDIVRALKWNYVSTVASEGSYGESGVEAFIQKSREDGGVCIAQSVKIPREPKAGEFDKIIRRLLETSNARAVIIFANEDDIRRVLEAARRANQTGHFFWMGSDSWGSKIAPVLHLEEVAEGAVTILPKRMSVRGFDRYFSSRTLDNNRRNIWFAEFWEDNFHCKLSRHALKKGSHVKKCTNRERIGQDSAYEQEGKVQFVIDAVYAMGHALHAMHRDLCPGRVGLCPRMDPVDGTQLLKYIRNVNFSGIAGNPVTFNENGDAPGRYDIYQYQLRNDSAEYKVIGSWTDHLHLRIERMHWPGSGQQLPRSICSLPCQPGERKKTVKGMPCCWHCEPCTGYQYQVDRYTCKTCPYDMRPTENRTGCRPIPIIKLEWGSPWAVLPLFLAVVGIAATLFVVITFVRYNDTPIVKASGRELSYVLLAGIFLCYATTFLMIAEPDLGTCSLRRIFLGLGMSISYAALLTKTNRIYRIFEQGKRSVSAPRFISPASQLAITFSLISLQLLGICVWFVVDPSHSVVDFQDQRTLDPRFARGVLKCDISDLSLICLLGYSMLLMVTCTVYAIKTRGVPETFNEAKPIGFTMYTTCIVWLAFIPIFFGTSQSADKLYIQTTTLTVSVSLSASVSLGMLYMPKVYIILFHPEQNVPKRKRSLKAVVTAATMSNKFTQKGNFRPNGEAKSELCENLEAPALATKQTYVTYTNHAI

For the compound `O=C(Nc1ccn(S(=O)(=O)c2ccc(CO)cc2)c1)c1ccccn1` [Example 161, N-(1-((4-(hydroxymethyl)phenyl)sulfonyl)-1H-pyrrol-3-yl)picolinamide], the EC50 is 1210 nM.
In the case of `O=C(Nc1ccn(S(=O)(=O)c2cccc(Cl)c2F)c1)c1ccco1` [Example 162, N-(1-((3-chloro-2-fluorophenyl)sulfonyl)-1H-pyrrol-3-yl)furan-2-carboxamide], the EC50 turned out to be 2540 nM.
With `O=C(Nc1ccn(S(=O)(=O)c2ccc(OC(F)F)cc2)c1)c1ccco1` [Example 163, N-(1-((4-(difluoromethoxy)phenyl)sulfonyl)-1H-pyrrol-3-yl)furan-2-carboxamide] the figure was 3240 nM; with `COc1ccc(S(=O)(=O)n2ccc(NC(=O)c3ccco3)c2)cc1` [Example 164, N-(1-((4-methoxyphenyl)sulfonyl)-1H-pyrrol-3-yl)furan-2-carboxamide], 701 nM; with `O=C(Nc1ccn(S(=O)(=O)c2ccc3c(c2)OCO3)c1)c1ccco1` [Example 166, N-(1-(benzo[d][1,3]dioxol-5-ylsulfonyl)-1H-pyrrol-3-yl)furan-2-carboxamide], 1940 nM.
Regarding `O=C(Nc1ccn(S(=O)(=O)c2ccc(Cl)cn2)c1)c1ccco1` [Example 167, N-(1-((5-chloropyridin-2-yl)sulfonyl)-1H-pyrrol-3-yl)furan-2-carboxamide], the EC50 was determined as 2860 nM.
Next, `COc1ccc(S(=O)(=O)n2ccc(NC(=O)c3ccco3)c2)cn1` [Example 168, N-(1-((6-methoxypyridin-3-yl)sulfonyl)-1H-pyrrol-3-yl)furan-2-carboxamide]: 2120 nM; `O=C(Nc1ccn(S(=O)(=O)c2ccc(Cl)cc2F)c1)c1ccco1` [Example 169, N-(1-((4-chloro-2-fluorophenyl)sulfonyl)-1H-pyrrol-3-yl)furan-2-carboxamide]: 4130 nM.
